Key:
Monographella nivalis = Monographella nivalis syn. Microdochium nivale (snow mould, foot rot of cereals), liquid culture growth inhibition; type: cell-based; settings: nutrient broth (PDB), 72 hrs, photometric at 620 nm, compared to untreated control
Protocol: Conidia of the fungus from cryogenic storage were directly mixed into nutrient broth (PDB potato dextrose broth). A DMSO solution of the test compounds was placed into a microtiter plate (96-well format) and the nutrient broth containing the fungal spores was added to it. The test plates were incubated at 24° C. and the inhibition of growth was determined photometrically after 72 hrs at 620 nm. […] Cercospora arachidicola (Brown Leaf Spot of Peanut): […]

Phakopsora pachyrhizi [1] = assay: Phakopsora pachyrhizi (soybean rust), soybean leaf disks, preventive; type: in vivo; settings: foliar, 288 h, approx. 12 dpi, compared to untreated control
Protocol: (§1) Soybean leaf disks are placed on agar in multiwell plates (24-well format) and sprayed with test solutions. After drying, the leaf disks are inoculated with a spore suspension of the fungus. After appropriate incubation the activity of a compound is assessed approx. 12 dpi (days after inoculation) as preventive fungicidal activity.

Plasmopara viticola = Plasmopara viticola (downy mildew of grapevine), grape vine leaf disks, preventive; type: in vivo; settings: foliar, 168 h, 7 dpi, compared to untreated control
Protocol: as §1, with “Grape vine” for “Soybean”, “7” for “approx. 12”

Glomerella lagenarium = Glomerella lagenarium syn. Colletotrichum lagenarium (anthracnose of cucurbits), liquid culture growth inhibition; type: cell-based; settings: Colletotrichum orbiculare, nutrient broth (PDB), 72 hrs, photometric at 620 nm, compared to untreated control
Protocol: Glomerella lagenarium Syn. Colletotrichum lagenarium (Anthracnose of Cucurbits): Conidia of the fungus from cryogenic storage were directly mixed into nutrient broth (PDB potato dextrose broth). A DMSO solution of the test compounds was placed into a microtiter plate (96-well format) and the nutrient broth containing the fungal spores was added to it. The test plates were incubated at 24° C. and the inhibition of growth was determined photometrically after 72 hrs at 620 nm. […]

Mycosphaerella arachidis = Mycosphaerella arachidis syn. Cercospora arachidicola (brown leaf spot of peanut), liquid culture growth inhibition; type: cell-based; settings: nutrient broth (PDB), approximately 5-6 days, photometric at 620 nm, compared to untreated control
Protocol: Conidia of the fungus from cryogenic storage were directly mixed into nutrient broth (PDB potato dextrose broth). A DMSO solution of the test compounds was placed into a microtiter plate (96-well format) and the nutrient broth containing the fungal spores was added to it. The test plates were incubated at 24° C. and the inhibition of growth was determined photometrically after approximately 5-6 […] at 620 nm.

[2] = test system: Puccinia recondita f. sp. tritici; assay: Puccinia recondita (brown rust), preventative, wheat leaf segments; type: in vivo; settings: foliar, 192 h, 8 dpi, compared to untreated control
Protocol: as §1, with “Wheat” for “Soybean”, “segments” for “disks”, “8” for “approx. 12”, “preventative” for “preventive”

[3] = test system: Erysiphe graminis f. sp. tritici; assay: Erysiphe graminis f. sp. tritici (wheat powdery mildew), wheat leaf segments, preventive; type: in vivo; settings: Blumeria graminis, foliar, 168 h, 7 dpi, compared to untreated control
Protocol: Wheat leaf segments are placed on agar in multiwell plates (24-well format) and sprayed with test solutions. After drying, the leaf disks are inoculated with spores of the fungus. After appropriate incubation the activity of a compound is assessed 7 dpi (days post inoculation) as preventive fungicidal activity.

[4] = test system: Puccinia recondita f. sp. tritici; assay: Puccinia recondita (brown rust), curative, wheat leaf segments; type: in vivo; settings: foliar, 192 h, sprayed 1 day after inoculation, 8 dpi, compared to untreated control
Protocol: (§2) Wheat leaf segments are placed on agar in multiwell plates (24-well format). The leaf segments are inoculated with a spore suspension of the fungus and sprayed with test solutions 1 day after inoculation. After appropriate incubation the activity of a compound is assessed 8 dpi (days after inoculation) as curative fungicidal activity.

Phakopsora pachyrhizi [5] = assay: Example D: comparative activity against Phakopsora pachyrhizi (soybean rust), soybean plants sprayed, leaf disks cut from treated plants; type: in vivo; settings: 0.1% OCHIMA, leaf disks cut one day after application, approx. 12 dpi
Protocol: Method: Soybean plants are sprayed in a spray chamber with formulated DMSO compound solutions which are diluted to the appropriate concentration with 0.1% […] (adjuvant comprising polyethoxylated sorbitol hexaoleate and tris(2-ethylhexyl) phosphate) just before spraying. Leaf disks are cut from treated plants and placed on agar into 24-well plates one day after application. After, the leaf disks are inoculated with a spore suspension of the fungus. After appropriate incubation the activity of a compound is assessed approx. 12 dpi (days after inoculation) as preventive fungicidal activity. The data are presented as the percentage of disease control of each compound for the biological tests and testing rates described below in Table 1.

Puccinia recondita = assay: Example C: comparative activity against Puccinia recondita (brown rust), curative, wheat leaf segments; type: in vivo; settings: 8 dpi
Protocol: as §2, with “Method; Wheat” for “Wheat”, “activity. The data are presented as the percentage of disease control of each compound for the biological tests and testing rates described below in table H.” for “activity.”

Phakopsora pachyrhizi [6] = assay: Example E: comparative activity against Phakopsora pachyrhizi (soybean rust), soybean leaf disks sprayed; type: in vivo; settings: 0.025% Tween20, approx. 12 dpi
Protocol: Method: Compounds to be tested are prepared as DMSO solutions which are diluted to the appropriate concentration with 0.025% Tween20 just before spraying. Soybean leaf disks are placed on agar in multiwell plates (24-well format) and sprayed with test solutions. After drying, the leaf disks are inoculated with a spore suspension of the fungus. After appropriate incubation the activity of a compound is assessed approx. 12 dpi (days after inoculation) as preventive fungicidal activity. The data are presented as the percentage of disease control of each compound for the biological tests and testing rates described below in Table J.

Pyricularia oryzae = assay: whole plant or invertebrate; type: in vivo; settings: foliar, 120 h, read-out: control of Pyricularia oryzae

| Compound | inhibition of growth at 20 ppm (Monographella nivalis) [%] | pest or weed control at 200 ppm (Plasmopara viticola) [%] | inhibition of growth at 20 ppm (Glomerella lagenarium) [%] | inhibition of growth at 20 ppm (Mycosphaerella arachidis) [%] | pest or weed control at 200 ppm [2] [%] | pest or weed control at 200 ppm [3] [%] | further results |
| --- | --- | --- | --- | --- | --- | --- | --- |
| CO/C=C(\Oc1cc(C2CC2)ccc1C)C(=O)OC [E.14, methyl (Z)-2-(5-cyclopropy1-2-methyl-phenoxy)-3-methoxy-prop-2-enoate] | ≥ 80 | ≥ 80 | ≥ 80 | ≥ 80 | ≥ 80 | ≥ 80 | pest or weed control at 60 ppm (Phakopsora pachyrhizi [1]): ≥ 70% |
| CO/C=C(\Oc1cc(C2CCCCC2)ccc1OC)C(=O)OC [E.10, methyl (Z)-2-(5-cyclohexy1-2-methoxy-phenoxy)-3-methoxy-prop-2-enoate] | ≥ 80 | ≥ 80 |  | ≥ 80 | ≥ 80 | ≥ 80 |  |
| CO/C=C(\Oc1cc(C2CCC(C(C)C)CC2)ccc1C)C(=O)OC (centres unmarked) [E.17, methyl (Z)-2-[5-(4-isopropylcyclohexyl)-2-methyl-phenoxy]-3-methoxy-prop-2-enoate] | ≥ 80 |  | ≥ 80 | ≥ 80 |  | ≥ 80 |  |
| CO/C=C(\Oc1cc(C2CCC(OC)CC2)ccc1C)C(=O)OC (centres unmarked) [E.19, methyl (Z)-3-methoxy-2-[5-(4-methoxycyclohexyl)-2-methyl-phenoxy]prop-2-enoate] | ≥ 80 | ≥ 80 | ≥ 80 | ≥ 80 | ≥ 80 | ≥ 80 | pest or weed control at 200 ppm [4]: ≥ 80% |
| CO/C=C(\Oc1cccc(C(C)(C)C)c1)C(=O)OC [Compound X-2, reference compound] |  |  |  |  |  |  | control (%) Phakopsora pachyrhizi (Soybean rust) (Phakopsora pachyrhizi [5]; 6 ppm): 0%; control (%) Phakopsora pachyrhizi (Soybean rust) (Phakopsora pachyrhizi [5]; 20 ppm): 0%; control (%) Phakopsora pachyrhizi (Soybean rust) (Phakopsora pachyrhizi [5]; 60 ppm): 0%; control (%) Phakopsora pachyrhizi (Soybean rust) (Phakopsora pachyrhizi [5]; 200 ppm): 0%; control (%) Puccinia recondita (Brown rust), curative (Puccinia recondita; 20 ppm): 0%; control (%) Puccinia recondita (Brown rust), curative (Puccinia recondita; 60 ppm): 0%; control (%) Puccinia recondita (Brown rust), curative (Puccinia recondita; 200 ppm): 0%; control (%) Phakopsora pachyrhizi (Soybean rust) (Phakopsora pachyrhizi [6]; 0.6 ppm): 0%; control (%) Phakopsora pachyrhizi (Soybean rust) (Phakopsora pachyrhizi [6]; 2 ppm): 0%; control (%) Phakopsora pachyrhizi (Soybean rust) (Phakopsora pachyrhizi [6]; 6 ppm): 0%; control (%) Phakopsora pachyrhizi (Soybean rust) (Phakopsora pachyrhizi [6]; 20 ppm): 0%; control (%) Phakopsora pachyrhizi (Soybean rust) (Phakopsora pachyrhizi [6]; 60 ppm): 10%; control (%) Phakopsora pachyrhizi (Soybean rust) (Phakopsora pachyrhizi [6]; 200 ppm): 10% |
| CO/C=C(\Oc1cc(C2CCCCC2)ccc1Br)C(=O)OC [E.8, methyl (Z)-2-(2-bromo-5-cyclohexyl-phenoxy)-3-methoxy-prop-2-enoate] | ≥ 80 | ≥ 80 |  | ≥ 80 | ≥ 80 | ≥ 80 |  |
| CO/C=C(\Oc1cc(C#CC2CCCCC2)ccc1C)C(=O)OC [Compound X-1, reference compound] |  |  |  |  |  |  | control (%) Phakopsora pachyrhizi (Soybean rust) (Phakopsora pachyrhizi [5]; 6 ppm): 0%; control (%) Phakopsora pachyrhizi (Soybean rust) (Phakopsora pachyrhizi [5]; 20 ppm): 0%; control (%) Phakopsora pachyrhizi (Soybean rust) (Phakopsora pachyrhizi [5]; 60 ppm): 0%; control (%) Phakopsora pachyrhizi (Soybean rust) (Phakopsora pachyrhizi [5]; 200 ppm): 63%; control (%) Puccinia recondita (Brown rust), curative (Puccinia recondita; 20 ppm): 0%; control (%) Puccinia recondita (Brown rust), curative (Puccinia recondita; 60 ppm): 0%; control (%) Puccinia recondita (Brown rust), curative (Puccinia recondita; 200 ppm): 0%; control (%) Phakopsora pachyrhizi (Soybean rust) (Phakopsora pachyrhizi [6]; 0.6 ppm): 0%; control (%) Phakopsora pachyrhizi (Soybean rust) (Phakopsora pachyrhizi [6]; 2 ppm): 0%; control (%) Phakopsora pachyrhizi (Soybean rust) (Phakopsora pachyrhizi [6]; 6 ppm): 35%; control (%) Phakopsora pachyrhizi (Soybean rust) (Phakopsora pachyrhizi [6]; 20 ppm): 80%; control (%) Phakopsora pachyrhizi (Soybean rust) (Phakopsora pachyrhizi [6]; 60 ppm): 100%; control (%) Phakopsora pachyrhizi (Soybean rust) (Phakopsora pachyrhizi [6]; 200 ppm): 100% |
| CO/C=C(\Oc1cc(C2=CCC(C)(C)CC2)ccc1C)C(=O)OC [F.10, methyl (Z)-2-[5-(4,4-dimethylcyclohexen-1-yl)-2-methyl-phenoxy]-3-methoxy-prop-2-enoate] | ≥ 80 | ≥ 80 | ≥ 80 | ≥ 80 | ≥ 80 | ≥ 80 |  |
| CO/C=C(\Oc1cc(C2=CCCCCC2)ccc1C)C(=O)OC [F.5, methyl (Z)-2-[5-(cyclohepten-1-yl)-2-methyl-phenoxy]-3-methoxy-prop-2-enoate] | ≥ 80 | ≥ 80 | ≥ 80 | ≥ 80 |  | ≥ 80 |  |
| CO/C=C(\Oc1cc(C2CCC(F)(F)CC2)ccc1C)C(=O)OC [E.6, methyl (Z)-2-[5-(4,4-difluorocyclohexyl)-2-methyl-phenoxy]-3-methoxy-prop-2-enoate] | ≥ 80 | ≥ 80 | ≥ 80 | ≥ 80 | ≥ 80 | ≥ 80 | pest or weed control at 200 ppm (Pyricularia oryzae): ≥ 80% |
| CO/C=C(\Oc1cc(C2CCCCCC2)ccc1C)C(=O)OC [E.3, methyl (Z)-2-(5-cyclohepty1-2-methyl-phenoxy)-3-methoxy-prop-2-enoate] | ≥ 80 | ≥ 80 | ≥ 80 | ≥ 80 | ≥ 80 | ≥ 80 | pest or weed control at 200 ppm (Pyricularia oryzae): ≥ 80% |
| CO/C=C(\Oc1cc(C2CCC(C(F)(F)F)CC2)ccc1C)C(=O)OC (centres unmarked) [E.1, methyl (Z)-3-methoxy-2-[2-methyl-5-[4-(trifluoromethyl)cyclohexyl]phenoxy] prop-2-enoate] | ≥ 80 |  |  | ≥ 80 | ≥ 80 | ≥ 80 |  |
| CO/C=C(\Oc1cc(C2=CCC(O)CC2)ccc1C)C(=O)OC (centres unmarked) [F.8, methyl (Z)-2-[5-(4-hydroxycyclohexen-1-yl)-2-methyl-phenoxy]-3-methoxy-prop-2-enoate] | ≥ 80 |  |  | ≥ 80 | ≥ 80 | ≥ 80 |  |
| CO/C=C(\Oc1cc(C2CCCCC2)ccc1F)C(=O)OC [E.11, methyl (Z)-2-(5-cyclohexy1-2-fluoro-phenoxy)-3-methoxy-prop-2-enoate] | ≥ 80 | ≥ 80 | ≥ 80 | ≥ 80 |  | ≥ 80 |  |

— US12262710B2, “Fungicidal compounds” (SYNGENTA CROP PROTECTION AG, priority 2019, dated 2025)
